Data set [1] is described as follows: Solubility of LA in organic solvent. To be noted: in NMP or DMSO. The class given is physicochemical. The text has this: To produce the drug/solvent bulk solution comprising the API (LA), the desired amount of the LA was combined with the solvent NMP or DMSO or combination of solvents with or without a co-solvent or other additives, in the indicated amounts (see individual experiments below). The API and solvent were combined in a glass vial or jar. Jars were mixed using the jar mill, Turbula, or shaker at room temperature until homogeneous. LA is soluble in NMP or DMSO and can load higher concentrations (at least 40% w/w). After dissolving the API in the organic solvent, the bulk solution was manually filled into syringes and capped with a tip cap. The syringes used for filling were either 1.2 mL male polypropylene syringes, 1.2 mL male cyclic olefin copolymer syringes or 1 mL male cyclic olefin copolymer syringes. Filled syringes were then packaged in labeled foil pouches with a Syringe A (polymer-solvent solution) and a desiccant pack and the pouches were sealed. After filling the syringes with the formulations, they were terminally sterilized with an external radiation dose of 30 kGy from e-beam processing. After terminal sterilization, the syringes were stored under refrigerated conditions (e.g., 2-8° C.) or accelerated conditions (>25° C. see individual experiments).

Data set [2] is described as follows: LA gelation studies of drug solutions (e-beam irradiated, 60 °C with agitation, inversion test). The class given is physicochemical. As to conditions: 150 rpm, up to 16 days, leuprolide acetate content. Here is the method: Drug solutions were prepared as described above and filled into syringes or glass vials. Syringes were untreated, contained various amounts of silicone, or were plasma coated for lubrication. Samples were irradiated by e-beam irradiation at not less than 25 kGy and stored at accelerated conditions of 60° C. with agitation at 150 rpm for up to 16 days. Samples were inspected periodically to determine if the drug solution remained a solution or had formed a solid/gel by an inversion test. Samples that had “gelled” were transferred to 5° C. for subsequent testing.
The gelation rate for each sample was calculated as Rate=1/(simulated 5° C. age at time of gelation in days). The Arrhenius equation was used to determine the simulated age, assuming standard reaction rate doubling for every 10° C. increase in temperature. […] Data was analyzed using JMP. […] Container type and lubrication were not significant.
Samples were tested for leuprolide content by HPLC. Leuprolide content was then converted to leuprolide acetate by multiplying by 1.078 (based on molecular mass ratios). A marked difference in leuprolide acetate content between the gelled and non-gelled samples was seen, with the tipping point between solution and solid/gelled samples occurring at about 45% LA.

The results in this text go back to US20260315567A1, “POLYMERIC LEUPROLIDE ACETATE FORMULATIONS” (Tolmar International Limited, priority 2023, published 2026).

As to `CCNC(=O)[C@@H]1CCCN1C(=O)[C@H](CCCNC(=N)N)NC(=O)[C@H](CC(C)C)NC(=O)[C@@H](CC(C)C)NC(=O)[C@H](Cc1ccc(O)cc1)NC(=O)[C@H](CO)NC(=O)[C@H](Cc1c[nH]c2ccccc12)NC(=O)[C@H](Cc1c[nH]cn1)NC(=O)[C@@H]1CCC(=O)N1` [LA, leuprolide acetate], the “solubility (loading)” value in data set [1] was “at least 40 % w/w”. Besides, the “tipping point between solution and solid/gelled samples” value in data set [2] is “about 45 % LA”.
